Patent US5393751A, “Tricyclic carbapenem compounds” (Takeda Chemical Industries, Ltd., priority 1989, dated 1995)

What was measured:
Experiment in all cases: MIC by agar dilution method
Format in all cases: cell-based
C. diphtheriae Tronto = conditions: Corynebacterium diphtheriae, 24 h
Protocol: (§1) The minimal inhibitory concentrations [MIC (μg/ml)] of a representative compound of the invention were determined by the following method.
(§2) Method for MIC determination
(§3) The MIC values of the test compound were determined by the agar dilution method. Thus, 1.0 ml aliquots of serial aqueous dilutions of the test compound were put in petri dishes and 9.0 ml aliquots of Trypticase Soy Agar were added and mixed. Those agar plates were respectively smeared with a suspension (about 10^8 CFU/ml) of the test organism and incubated at 37° C. overnight.

E. cloacae IFO 12937 = conditions: Enterobacter cloacae, IFO12937, 24 h, 10^8 CFU/ml, 37° C. overnight
Protocol: as §1, §2, §3

E. cloacae TN 583 = conditions: Enterobacter cloacae, TN583, 24 h, 10^8 CFU/ml, 37° C. overnight
Protocol: as §1, §2, §3

S. aureus 308A-1 = conditions: Staphylococcus aureus, 308A1, 24 h, 10^8 CFU/ml, 37° C. overnight
Protocol: as §1, §2, §3

E. coli NIHJ O-111 = conditions: Escherichia coli, NIHJO111, 24 h, 10^8 CFU/ml, 37° C. overnight
Protocol: as §1, §2, §3

C. freundii TN 474 = conditions: Citrobacter freundii, TN474, 24 h, 10^8 CFU/ml, 37° C. overnight
Protocol: as §1, §2, §3

S. marcescens IFO 12648 = conditions: Serratia marcescens, IFO12648, 24 h, 10^8 CFU/ml, 37° C. overnight
Protocol: as §1, §2, §3

S. aureus FDA 209P = conditions: Staphylococcus aureus, FDA209P, 24 h, 10^8 CFU/ml, 37° C. overnight
Protocol: as §1, §2, §3

E. coli NIHJ JC-2 = conditions: Escherichia coli, NIHJJC2, 24 h, 10^8 CFU/ml, 37° C. overnight
Protocol: as §1, §2, §3

M. morganii IFO 3168 = conditions: Morganella morganii, IFO3168, 24 h, 10^8 CFU/ml, 37° C. overnight
Protocol: as §1, §2, §3

K. pneumoniae DT = conditions: Klebsiella pneumoniae, 24 h, 10^8 CFU/ml, 37° C. overnight
Protocol: as §1, §2, §3

S. pyogenes S-8 = conditions: Streptococcus pyogenes, S8, 24 h, 10^8 CFU/ml, 37° C. overnight
Protocol: as §1, §2, §3

K. oxytoca TN 1711 = conditions: Klebsiella oxytoca, TN1711, 24 h, 10^8 CFU/ml, 37° C. overnight
Protocol: as §1, §2, §3

S. pyogenes E-14 = conditions: Streptococcus pyogenes, E14, 24 h, 10^8 CFU/ml, 37° C. overnight
Protocol: as §1, §2, §3

S. pneumoniae Type I = conditions: Streptococcus pneumoniae, 24 h, 10^8 CFU/ml, 37° C. overnight
Protocol: as §1, §2, §3

E. coli NIHJ T-7 = conditions: Escherichia coli, NIHJT7, 24 h, 10^8 CFU/ml, 37° C. overnight
Protocol: as §1, §2, §3

C. freundii IFO 12681 = conditions: Citrobacter freundii, IFO12681, 24 h, 10^8 CFU/ml, 37° C. overnight
Protocol: as §1, §2, §3

P. vulgaris IFO 3988 = conditions: Proteus vulgaris, IFO3988, 24 h, 10^8 CFU/ml, 37° C. overnight
Protocol: as §1, §2, §3

S. mitis America = conditions: Streptococcus mitis, 24 h, 10^8 CFU/ml, 37° C. overnight
Protocol: as §1, §2, §3

P. mirabilis IFO 3849 = conditions: Proteus mirabilis, IFO3849, 24 h, 10^8 CFU/ml, 37° C. overnight
Protocol: as §1, §2, §3

S. aureus 1840 = conditions: Staphylococcus aureus, 24 h, 10^8 CFU/ml, 37° C. overnight
Protocol: as §1, §2, §3

**Q.** How did the MIC (C. diphtheriae Tronto) turn out when C[C@@H](O)[C@H]1C(=O)N2C(C(=O)[O-])=C3SCCCC3[C@H]12.[Na+] (mixture of isomers) [Example 3, Sodium (5S,6S,7RS)-5-[(R)-1-hydroxyethyl]-4-oxo-3-aza-11-thiatricyclo[5.4.0.0^3,6]undec-1-ene-2-carboxylate] was run?
**A.** < 0.1 µg/mL

**Q.** What about the MIC (E. cloacae IFO 12937) of the same compound?
**A.** 0.78 µg/mL

**Q.** What about the MIC (E. cloacae TN 583) of the same compound?
**A.** 0.78 µg/mL

**Q.** And the MIC (S. aureus 308A-1)?
**A.** 0.78 µg/mL

**Q.** And the MIC (E. coli NIHJ O-111)?
**A.** 0.2 µg/mL

**Q.** What about the MIC (C. freundii TN 474) of the same compound?
**A.** 1.56 µg/mL

**Q.** What about the MIC (S. marcescens IFO 12648) of the same compound?
**A.** 1.56 µg/mL

**Q.** And the MIC (S. aureus FDA 209P)?
**A.** 0.78 µg/mL

**Q.** And the MIC (E. coli NIHJ JC-2)?
**A.** 0.2 µg/mL

**Q.** What about the MIC (M. morganii IFO 3168) of the same compound?
**A.** 3.13 µg/mL

**Q.** What about the MIC (K. pneumoniae DT) of the same compound?
**A.** 0.39 µg/mL

**Q.** What about the MIC (S. pyogenes S-8) of the same compound?
**A.** 0.2 µg/mL

**Q.** And the MIC (K. oxytoca TN 1711)?
**A.** 0.39 µg/mL

**Q.** And the MIC (S. pyogenes E-14)?
**A.** 0.78 µg/mL

**Q.** And the MIC (S. pneumoniae Type I)?
**A.** 0.39 µg/mL

**Q.** What about the MIC (E. coli NIHJ T-7) of the same compound?
**A.** 0.2 µg/mL

**Q.** What about the MIC (C. freundii IFO 12681) of the same compound?
**A.** 0.39 µg/mL

**Q.** What about the MIC (P. vulgaris IFO 3988) of the same compound?
**A.** 3.13 µg/mL

**Q.** What about the MIC (S. mitis America) of the same compound?
**A.** 0.78 µg/mL

**Q.** And the MIC (P. mirabilis IFO 3849)?
**A.** 1.56 µg/mL

**Q.** And the MIC (S. aureus 1840)?
**A.** 1.56 µg/mL
